Like-named read-outs stand apart in the source and are kept apart here.
Assays:
[1] = test system: SMN2 minigene (full length SMN2 minigene mRNA containing SMN2 exon 7); assay: SMN2 minigene mRNA splicing RT-qPCR assay in cultured cells; assay type: cell-based, human; details: Homo sapiens, HEK293-H, read-out: EC1.5x for production of full length SMN2 mRNA
Procedure, shortened: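 Read-out: full-length (exon 7-included) SMN2 minigene mRNA by multiplex RT-qPCR with GAPDH, efficiency-corrected (1+E)^−Ct, GAPDH-normalized and divided by vehicle. Stably transfected HEK293H cells, 24 h compound exposure, duplicates per concentration. Value is EC1.5x, reported as star ranges.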

Smn protein = Smn protein assay in cultured cells (SMN HTRF); assay type: cell-based, human; details: for EC1.5x (concentration giving 1.5-fold Smn protein increase): read-out: EC1.5x for Smn protein expression
Procedure, shortened: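 Lysates in RIPA with protease inhibitors are incubated overnight at room temperature with HTRF anti-SMN antibodies. EC1.5x is derived from fold increase in ΔF over vehicle.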

[2] = HEK293H cells stably transfected with SMN2-A minigene, 24 hours, 7-point concentration curve, 1.5-fold relative to vehicle-treated cells
[3] = SMA patient fibroblast cells, 48 hours, 7-point concentration data, fold increase relative to vehicle control (SMN HTRF)
[4] = SMA Type 1 patient fibroblast cells (GM03813), 48 hours, 7-point concentration curve, SMN HTRF, concentration producing 1.5 times Smn protein vs DMSO vehicle control

SMILES | melting point [°C] | EC (1.5-fold) [1, 2] [µM] | maximum fold (Fold) increase of Smn protein (Smn protein; [3]) | EC1.5x (concentration giving 1.5-fold Smn protein increase) (Smn protein; [4]) [nM] | EC (1.5-fold) ([1]; 24 h) [µM] | maximum fold (Fold) increase of Smn protein (Smn protein) | EC1.5x (concentration giving 1.5-fold Smn protein increase) (Smn protein) [nM]
Cc1ccc2nc(-c3cc4ccc(O[C@@H]5CCNC5)cc4oc3=O)cn2c1.Cl.Cl [Compound 326, 3-(6-methylimidazo[1,2-a]pyridin-2-yl)-7-[(3R)-pyrrolidin-3-yloxy]-2H-chromen-2-one hydrochloride (1:2)] | 261 to 265 | 0.1 to 0.3 | ** (fold increase between >1.2 and ≤1.35) |  |  |  | 
C[C@@H]1CN(c2cc(F)c3cc(-c4cn5cccnc5n4)c(=O)oc3c2)C[C@H](C)N1 [Compound 352, 7-[(3R,5S)-3,5-dimethylpiperazin-1-yl]-5-fluoro-3-(imidazo[1,2-a]pyrimidin-2-yl)-2H-chromen-2-one] | 290 to 292 | 0.1 to 0.3 | * (maximum fold increase of ≤1.2) |  |  |  | 
Cc1cn2cc(-c3cc4ccc(C5=CCN(C(C)C)CC5)cc4oc3=O)nc2c(C)n1 [Compound 802, 3-(6,8-dimethylimidazo[1,2-a]pyrazin-2-yl)-7-[1-(propan-2-yl)-1,2,3,6-tetrahydropyridin-4-yl]-2H-chromen-2-one] | 207 to 217 |  |  |  | < 0.1 | **** (key: *: maximum fold increase of ≤1.2; **: fold increase between >1.2 and ≤1.35; ***: fold increase between >1.35 and ≤1.5; ****: fold increase between >1.5 and ≤1.65; *****: fold increase >1.65) | < 300
C[C@@H]1CN(c2ccc3cc(-c4cn5ccc(Cl)cc5n4)c(=O)oc3c2)C[C@H](C)N1 [Compound 123, 3-(7-chloroimidazo[1,2-a]pyridin-2-yl)-7-[(3R,5S)-3,5-dimethylpiperazin-1-yl]-2H-chromen-2-one] | 223 to 231 | 1 to 3 | *** (fold increase between >1.35 and ≤1.5) | 300 to 1000 |  |  | 
Cc1cccc(Nc2cc3ccc(N4CCNCC4)cc3oc2=O)n1 [Compound 64, 3-[(6-methylpyridin-2-yl)amino]-7-(piperazin-1-yl)-2H-chromen-2-one] | 135 to 137 | 1 to 3 | * (maximum fold increase of ≤1.2) |  |  |  | 
Cc1cccc(-c2cc3ccc(N4CCNCC4)cc3oc2=O)c1 [Compound 511, 3-(3-methylphenyl)-7-(piperazin-1-yl)-2H-chromen-2-one] | 118 to 120 |  | * (maximum fold increase of ≤1.2) |  | 1 to 3 |  | 
C[C@@H]1CN(c2ccc3cc(-c4nc5c(F)cccc5o4)c(=O)oc3c2)C[C@H](C)N1 [Compound 39, 7-[(3R,5S)-3,5-dimethylpiperazin-1-yl]-3-(4-fluoro-1,3-benzoxazol-2-yl)-2H-chromen-2-one] | 242 to 243 | 0.3 to 1 | *** (fold increase between >1.35 and ≤1.5) | 3000 to 10000 |  |  | 
CNCCCCc1ccc2cc(-c3cn4cc(C)nc(C)c4n3)c(=O)oc2c1 [Compound 952, 3-(6,8-dimethylimidazo[1,2-a]pyrazin-2-yl)-7-[4-(methylamino)butyl]-2H-chromen-2-one] | 180 to 184 | < 0.1 | ***** (fold increase >1.65) | < 300 |  |  | 
Cc1ccc2nc(-c3cc4ccc(CN(C)CCO)cc4oc3=O)cn2c1 [Cpd 148, 7-{[(2-hydroxyethyl)(methyl)amino]methyl}-3-(6-methylimidazo[1,2-a]pyridin-2-yl)-2H-chromen-2-one] | 166 to 169 | 3 to 30 | ***** (fold increase >1.65) | 1000 to 3000 |  |  | 

Now from value to molecule, other results behind:

melting point [°C] | SMILES | EC (1.5-fold) [1, 2] [µM] | maximum fold (Fold) increase of Smn protein (Smn protein; [3]) | EC1.5x (concentration giving 1.5-fold Smn protein increase) (Smn protein; [4]) [nM] | EC (1.5-fold) ([1]; 24 h) [µM] | maximum fold (Fold) increase of Smn protein (Smn protein) | EC1.5x (concentration giving 1.5-fold Smn protein increase) (Smn protein) [nM]
166 to 169 | CCN1CCCN(c2ccc3cc(-c4cc5c(C)nc(C)cn5c4)c(=O)oc3c2)CC1 [Compound 671, 3-(1,3-dimethylpyrrolo[1,2-a]pyrazin-7-yl)-7-(4-ethyl-1,4-diazepan-1-yl)-2H-chromen-2-one] | < 0.1 | ***** (fold increase >1.65) | < 300 |  |  | 
123 to 126 | COc1ccc(-c2cc3ccc(N4CCN[C@H](C)C4)cc3oc2=O)cc1 [Compound 448, 3-(4-methoxyphenyl)-7-[(3R)-3-methylpiperazin-1-yl]-2H-chromen-2-one] | 1 to 3 | * (maximum fold increase of ≤1.2) |  |  |  | 
296 to 306 | Cc1cc(F)c2nc(-c3cc4ccc(N5CCN6CCC[C@H]6C5)cc4oc3=O)cn2c1 [Compound 560, 3-(8-fluoro-6-methylimidazo[1,2-a]pyridin-2-yl)-7-[(8aS)-hexahydropyrrolo[1,2-a]pyrazin-2(1H)-yl]-2H-chromen-2-one] | 0.1 to 0.3 | **** (fold increase between >1.5 and ≤1.65) | < 300 |  |  | 
224 to 229 | Cc1cn2cc(-c3cc4ccc(C5CCNCC5)cc4oc3=O)nc2c(C)n1 [Cpd 742, 3-(6,8-dimethylimidazo[1,2-a]pyrazin-2-yl)-7-(piperidin-4-yl)-2H-chromen-2-one] | < 0.1 | ***** (fold increase >1.65) | < 300 |  |  | 
178 to 180 | Cc1ccc2oc(-c3cc4ccc(N5CCN(C)CC5)cc4oc3=O)cc2n1 [Cpd 698, 3-(5-methylfuro[3,2-b]pyridin-2-yl)-7-(4-methylpiperazin-1-yl)-2H-chromen-2-one] | 1 to 3 | * (maximum fold increase of ≤1.2) |  |  |  | 
215 to 217 | Cc1cn2cc(-c3cc4ccc(N5CCN(CCCF)[C@@H](C)C5)cc4oc3=O)nc2c(C)n1 [Compound 900, 3-(6,8-dimethylimidazo[1,2-a]pyrazin-2-yl)-7-[(3S)-4-(3-fluoropropyl)-3-methylpiperazin-1-yl]-2H-chromen-2-one] | < 0.1 | ***** (fold increase >1.65) | < 300 |  |  | 
215 to 217 | CCN1CCN(c2ccc3cc(-c4cn5cc(C)nc(C)c5n4)c(=O)oc3c2)CC1 [Compound 621, 3-(6,8-dimethylimidazo[1,2-a]pyrazin-2-yl)-7-(4-ethylpiperazin-1-yl)-2H-chromen-2-one] | < 0.1 | ***** (fold increase >1.65) | < 300 |  |  | 
196 to 198 | CCN1CCC(c2ccc3cc(-c4ccc5nn(C)cc5c4)c(=O)oc3c2)CC1 [Compound 863, 7-(1-ethylpiperidin-4-yl)-3-(2-methyl-2H-indazol-5-yl)-2H-chromen-2-one] | 0.1 to 0.3 | ***** (fold increase >1.65) | 300 to 1000 |  |  | 
212 to 216 | Cc1cn2cc(-c3cc4ccc(CCCN)cc4oc3=O)nc2c(C)n1 [Cpd 927, 7-(3-aminopropyl)-3-(6,8-dimethylimidazo[1,2-a]pyrazin-2-yl)-2H-chromen-2-one] | 1 to 3 | ** (fold increase between >1.2 and ≤1.35) |  |  |  | 
277 to 287 | CN1CCN(c2ccc3cc(-c4cn5cc(C6CC6)cc(F)c5n4)c(=O)oc3c2)CC1 [Compound 504, 3-(6-cyclopropyl-8-fluoroimidazo[1,2-a]pyridin-2-yl)-7-(4-methylpiperazin-1-yl)-2H-chromen-2-one] | 1 to 3 | * (maximum fold increase of ≤1.2) |  |  |  | 
229 to 232 | Cc1ccc2nc(-c3cc4ccc(N5CCNCC5)cc4oc3=O)cn2c1 [Compound 51, 3-(6-methylimidazo[1,2-a]pyridin-2-yl)-7-(piperazin-1-yl)-2H-chromen-2-one] | 0.1 to 0.3 | ***** (fold increase >1.65) | < 300 |  |  | 
235 to 238 | Cc1cn2cc(-c3cc4ccc(N5CCN(C)CC5)cc4oc3=O)ccc2n1 [Compound 678, 3-(2-methylimidazo[1,2-a]pyridin-6-yl)-7-(4-methylpiperazin-1-yl)-2H-chromen-2-one] | < 0.1 | ***** (fold increase >1.65) | < 300 |  |  | 
208 to 210 | CCN1CCN(c2ccc3cc(-c4cc5cnc(C)cn5c4)c(=O)oc3c2)CC1 [Compound 640, 7-(4-ethylpiperazin-1-yl)-3-(3-methylpyrrolo[1,2-a]pyrazin-7-yl)-2H-chromen-2-one] | < 0.1 | **** (fold increase between >1.5 and ≤1.65) | < 300 |  |  | 
268 to 274 | Cc1cn2cc(-c3cc4ccc(N5CCN(C6CCC6)CC5)cc4oc3=O)nc2cn1 [Compound 838, 7-(4-cyclobutylpiperazin-1-yl)-3-(6-methylimidazo[1,2-a]pyrazin-2-yl)-2H-chromen-2-one] | < 0.1 | ***** (fold increase >1.65) | < 300 |  |  | 
